Source: ChEMBL document CHEMBL5356981, “Discovery of potential scaffolds for glutaminyl cyclase inhibitors: Virtual screening, synthesis, and evaluation” (Bioorg Med Chem, 2024)
pIC50: −log10 of the molar value.

Biological target: Glutaminyl-peptide cyclotransferase (Homo sapiens, UniProt Q16769)
Assay: Inhibition of N-terminal his6-tagged human recombinant glutaminyl cyclase expressed in Escherichia coli using H-Gln-AMC as substrate incubated for 60 mins in presence of pyroglutamyl peptidase

Sequence of Glutaminyl-peptide cyclotransferase (Q16769 whole entry): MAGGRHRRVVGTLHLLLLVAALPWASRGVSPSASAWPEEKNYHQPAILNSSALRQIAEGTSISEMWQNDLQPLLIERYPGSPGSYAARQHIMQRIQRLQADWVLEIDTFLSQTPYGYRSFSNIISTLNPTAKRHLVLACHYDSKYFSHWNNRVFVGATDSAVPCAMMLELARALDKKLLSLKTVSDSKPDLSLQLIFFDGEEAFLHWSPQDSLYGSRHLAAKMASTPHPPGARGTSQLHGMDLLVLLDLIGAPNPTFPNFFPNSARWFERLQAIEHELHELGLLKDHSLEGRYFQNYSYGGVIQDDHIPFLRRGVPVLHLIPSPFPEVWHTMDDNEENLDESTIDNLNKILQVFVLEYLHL

pIC50: < 4.52
Structure (SMILES): COc1ccc(S(=O)(=O)Nc2ccc(-c3cn[nH]c3)cc2)cc1
